Test system: Metabolic Syndrome cases
Test: Clinical study in Metabolic Syndrome cases
Type: in vivo, human
Procedure: The study population consisted of 128 diagnosed Metabolic Syndrome cases (76 Men and 52 Women), aged 52.81±9.68 years at study entry. The cases were diagnosed as per criteria given by WHO for classification and diagnosis of Metabolic Syndrome. After preliminary screening the subjects showing association with 3 or more than 3 above factors were selected. The clinical trial was conducted in three groups— Group-I: 36 cases were treated with Orlistat (120 mg twice a day after each meals). Group-II: 44 cases were treated with Ayurvedic formulation. Group-III: 48 cases were administered Orlistat along with Ayurvedic formulation. […] Lipid profile including triglyceride was estimated by standard laboratory kits. TNF-[…], interleukin-6 was measured by ELISA kit, adiponectin by radioimmunoassay kit. CRP by kit for quantitative nephelometric determination of CRP in human serum or plasma by Turbox/Turbox analyzer and ELISA activity assay kit for Leptin level. Subjects suffering from any other disease known to affect the study parameters were excluded from the series. Upon recruitment all subjects gave informed written consent.

Q: Which Adiponectin (After 6 months) does the source give for `CCCCCCCCCCC[C@@H](C[C@@H]1OC(=O)[C@H]1CCCCCC)OC(=O)[C@H](CC(C)C)NC=O` [Conventional drug, Orlistat] here?
A: 10.04 ± 2.84 µg/mL

Q: What about the “Apolipo (B)” value (After 6 months) of the same compound?
A: 156.41 ± 17.11 mg/dL

Q: What about the Diastolic blood pressure (After 6 months) of the same compound?
A: 84.42 ± 1.98 mmHg

Q: What about the Endotheline (After 6 months) of the same compound?
A: 875.42 ± 171.36 pg/mL

Q: What about the Fasting blood glucose (After 6 months) of the same compound?
A: 99.43 ± 4.36 mg/dL

Q: And the HDL-c (After 6 months)?
A: 50.75 ± 3.12 mg/dL

Q: What about the Interleukin-6 (After 6 months) of the same compound?
A: 1.89 ± 0.75 pg/mL

Q: What about the LDL-c (After 6 months) of the same compound?
A: 109.42 ± 8.44 mg/dL

Q: What about the Leptin (After 6 months) of the same compound?
A: 26.44 ± 3.28 µg/L

Q: What about the Postprandial blood glucose (After 6 months) of the same compound?
A: 186.90 ± 17.42 mg/dL

Q: And the Systolic blood pressure (After 6 months)?
A: 126.90 ± 4.06 mmHg

Q: What about the TNF-α (After 6 months) of the same compound?
A: 324.85 ± 57.86 pg/mL

Q: What about the Total cholesterol (After 6 months) of the same compound?
A: 208.91 ± 27.97 mg/dL

Q: And the Triglycerides (After 6 months)?
A: 224.56 ± 37.90 mg/dL

Q: What about the “hs CRP” value (After 6 months) of the same compound?
A: 3.48 ± 0.89 mg/L

Q: What about the “Body Mass Index (BMI)” value (Female, After 3 months) of the same compound?
A: 29.68 ± 2.04

Q: What about the “Body Mass Index (BMI)” value (Female, After 6 months) of the same compound?
A: 28.45 ± 1.68

Q: What about the “Body Mass Index (BMI)” value (Female, Initial) of the same compound?
A: 31.14 ± 1.88

Q: What about the Adiponectin (Initial) of the same compound?
A: 7.82 ± 1.64 µg/mL

Q: And the “Apolipo (B)” value (Initial)?
A: 193.88 ± 31.64 mg/dL

Q: And the Diastolic blood pressure (Initial)?
A: 88.35 ± 2.06 mmHg

Q: What about the Endotheline (Initial) of the same compound?
A: 1139.73 ± 211.54 pg/mL

Q: And the Fasting blood glucose (Initial)?
A: 133.90 ± 8.82 mg/dL

Q: What about the HDL-c (Initial) of the same compound?
A: 43.84 ± 2.42 mg/dL

Q: And the Interleukin-6 (Initial)?
A: 2.35 ± 0.84 pg/mL

Q: And the LDL-c (Initial)?
A: 143.71 ± 9.13 mg/dL

Q: What about the Leptin (Initial) of the same compound?
A: 33.41 ± 4.35 µg/L

Q: What about the Postprandial blood glucose (Initial) of the same compound?
A: 224.81 ± 20.14 mg/dL

Q: What about the Systolic blood pressure (Initial) of the same compound?
A: 137.82 ± 5.15 mmHg

Q: And the TNF-α (Initial)?
A: 579.84 ± 68.36 pg/mL

Q: What about the Total cholesterol (Initial) of the same compound?
A: 243.84 ± 41.52 mg/dL

Q: And the Triglycerides (Initial)?
A: 371.90 ± 43.88 mg/dL

Q: What about the “hs CRP” value (Initial) of the same compound?
A: 5.31 ± 1.04 mg/L

Q: And the “Body Mass Index (BMI)” value (Male, After 3 months)?
A: 28.82 ± 1.90

Q: And the “Body Mass Index (BMI)” value (Male, After 6 months)?
A: 27.16 ± 1.35

Q: What about the “Body Mass Index (BMI)” value (Male, Initial) of the same compound?
A: 30.75 ± 2.17
